Reference: patent US6844355B2 (Academic Pharmaceuticals, Inc., priority 1999, dated 2005)
Entries after “also recorded” stand apart in the source; their conditions may differ.

Tests used:
[1] = molecular target: T1, KVLQT1+KCNE1 (IKs) (Homo sapiens, UniProt P51787); test: KVLQT1+KCNE1 (IKs) currents in Xenopus oocytes; format: cell-based
T1 construct: expressed in transfected cells; host or cells: Xenopus laevis oocytes (co-injection of hminK and KVLQT1 cRNA)
Protocol: Wild type human minK (KCNE1) and KVLQT1 cDNA are isolated from human cardiac and pancreas cDNA libraries and cloned into the pSP64 poly (A) vector (Promega). For transcription in oocytes, the minK is subcloned from genomic DNA using the MKEL and MKER primers. The final minK expression construct contains cDNA inserted in the plasmid vector (PROMEGA). For the injection into Xenopus oocytes, cRNA is prepared using the mCAP RNA capping kit (Stratagene) following linearization of the expression construct by restriction digestion with EcoRI for run-off transcription.
In-vitro transcription is performed with SP6 RNA polymerize using the mMessage Machine kit (Ambion). The final capped-cRNA product is resuspended in 0.1 mM KCL and stored at −80° C. The concentration of synthesized RNA is estimated by separating the denatured cRNA on a 1.5% agarose gel together with the 0.24-9.5 kb RNA ladder (Gibco-BRL).
KVLQT1+KCNE1 currents are recorded with a solution containing in mmol-L: NaCl-96; KCl-2 CaCl2-1.8; MgCl2-1.0; and HEPES 5, pH 7.4. The following testing protocols are used: a) I-V plot, oocytes are held at −80 mV, then step pulses from −60 mV to +40 mV in 20 mV increments of 18 seconds are applied returning to −40 mV; b) Single pulses, the same protocol is applied for control current and after drug perfusion for current measurement. From a holding potential of −80 mV to a test potential of +40 mV during 18 seconds a pulse is applied. […] The cell is either left at a resting potential of −80 mV or stimulated from a holding potential of −80 mV to a test potential of +40 mV during 1000 ms in a frequency range of 0.3 Hz.
Isolation of oocytes and cRNA injection. Xenopus laevis frogs are anesthetized by immersion in 0.2% Trocaine for 15-30 min. A small incision is made in the lateral ventral quadrant of the abdomen and a small piece of ovarian tissue is removed. The incision is then sutured at both the muscle and the cutaneous layers with fine silk thread and the animal is allowed to recover. The ovarian lobe is digested with 10 mg/ml type 1A collagenase (Sigma) in calcium-free solution for 30-60 min to remove the follicle layer. Stage V and VI oocytes are injected with 40 nl of a solution containing 10 to 50 ng/μl cRNA of either SCN5A, HERG, or hminK and KVLQT1, and then incubated at 19° C. in a modified bath solution for 2-8 days.

[2] = system: ileum; test: Ileum strip contractility, isometric muscle contractions; set-up: species or system Guinea pig; conditions: for Bursts / Slow waves / Spikes: mean ± standard deviation; for effect on ileum strip contractility, in words: Table 2 / FIG. 9
Protocol: Rat Ileum Studies and Characterization of Chiral Separation Products. Guinea pig ileum is harvested and placed in warm (37° C.) Krebs […] buffer and oxygenated (95% O2 and 5% CO2). Segments approximately 4.5 cm long are placed on a transducer (Gilson Instruments) and a preload of 1 gm is placed on the tissue. The tissue is then placed in a chamber and bathed in Tyrode's solution (37.5° C.) and oxygenated (95% O2 and 5% CO2). Muscle contractions are measured isometrically. After stable contractions are obtained, a study compound is added to the tissue bath and recordings are made until a new steady state of contraction is obtained. Following a washout period, a new steady state of contraction is recorded and then the procedure repeated with a second dose of the drug being evaluated. Changes in contraction magnitude are recorded as the percentage change from baseline. This procedure is a modification of the technique described by Van Neuten and associates (Van Neuten et al., Life Sci. 1978 28:453-458). […] The preparation permits the identification of slow waves of contraction, bursts of contraction of the smooth muscle and spikes of marked cross-sectional contraction. Each of the measures can be used as a measurement of contractile effect of an agent.

T1 sequence (P51787 whole entry): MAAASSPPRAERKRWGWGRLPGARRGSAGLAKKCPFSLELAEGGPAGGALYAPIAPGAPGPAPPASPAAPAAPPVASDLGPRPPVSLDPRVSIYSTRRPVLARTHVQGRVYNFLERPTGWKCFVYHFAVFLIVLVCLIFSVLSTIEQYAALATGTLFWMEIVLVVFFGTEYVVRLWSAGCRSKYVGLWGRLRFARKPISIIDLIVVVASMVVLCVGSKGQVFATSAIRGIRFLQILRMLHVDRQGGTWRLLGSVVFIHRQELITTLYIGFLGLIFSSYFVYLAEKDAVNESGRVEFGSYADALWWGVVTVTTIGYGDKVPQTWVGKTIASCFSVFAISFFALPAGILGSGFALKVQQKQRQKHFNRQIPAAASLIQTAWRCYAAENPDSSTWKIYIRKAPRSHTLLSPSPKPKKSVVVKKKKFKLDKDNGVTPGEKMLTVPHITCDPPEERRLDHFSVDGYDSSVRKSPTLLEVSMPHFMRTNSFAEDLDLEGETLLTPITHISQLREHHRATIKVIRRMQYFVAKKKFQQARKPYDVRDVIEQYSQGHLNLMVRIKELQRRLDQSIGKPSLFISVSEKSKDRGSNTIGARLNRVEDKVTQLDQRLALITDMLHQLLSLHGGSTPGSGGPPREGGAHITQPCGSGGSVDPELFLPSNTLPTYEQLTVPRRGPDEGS

| Structure (SMILES) | effect on IKs current, in words ([1]; 100 μM) | % of block of IKs ([1]; 10^−4 Molar) [%] | % of block of IKs ([1]; 10^−5 Molar) [%] | % of block of IKs ([1]; 10^−6 Molar) [%] | reduction of IKs currents ([1]; concentrations from 10^−6 to 10^−4, respectively) [%] | Bursts ([2]; 10^−5 M) | Slow waves ([2]; 10^−5 M) | Spikes ([2]; 10^−5 M) | Bursts ([2]; 10^−6 M) | Slow waves ([2]; 10^−6 M) | Spikes ([2]; 10^−6 M) | Bursts ([2]; 10^−7 M) | Slow waves ([2]; 10^−7 M) | Spikes ([2]; 10^−7 M) | effect on rat illeal strip tracings, in words ([2]; 10^−7 and 10^−6 M, FIG. 9 legend) | effect on ileum strip contractility, in words [2] |
| --- | --- | --- | --- | --- | --- | --- | --- | --- | --- | --- | --- | --- | --- | --- | --- | --- |
| CCCCc1oc2ccccc2c1C(=O)c1cc(I)c(OCCN(CC)CC)c(I)c1 [AMIODARONE, amiodarone] | inhibits the current flow across the IKs channel | 47 ± 1 | 30 ± 3 | 15 ± 1 |  |  |  |  |  |  |  |  |  |  |  |  |
| C=C[C@H]1C[N@@]2CC[C@H]1C[C@@H]2[C@@H](O)c1ccnc2ccc(OC)cc12 [Quinidine, quinidine] |  | 52 ± 5 | 21 ± 7 | 14 ± 5 | 14 to 52 | 14 ± 4 | 6 ± 1 | 15 ± 1 | 7.7 ± 1.2 | 3.0 ± 0.5 | 13 ± 2 | 8 ± 2 | 3.3 ± 0.6 | 11 ± 1 | reduces the magnitude of contraction | augmentation of slow wave contractility, burst contractility and spike contractility; also recorded: increases slow waves |
| C=C[C@H]1C[N@@]2CC[C@H]1C[C@H]2[C@H](O)c1ccnc2ccc(OC)cc12 [quinine] |  |  |  |  |  |  |  |  |  |  |  |  |  |  |  | no effect |
